Values of other authors in US20180177198A1, “PEDICULICIDE FORMULATION BASED ON EUCALYPTUS GLOBULUS ESSENTIAL OIL” (UNIVERSIDAD DE CONCEPCION, priority 2015, published 2018).

Tests used:
[1] = test system: lice
[2] = test system: pediculosis; conditions: in vivo
[3] = test system: P. capitis
[4] = not given; remark: listed apart in the source
[5] = test system: Pediculus humanus capitis resistant to permethrin

For `CC1=CC[C@@H](C(C)(C)O)CC1` [1-α-terpineol], the “pediculicidal effectiveness compared with phenothrin or pyrethrum” value [1] is listed as “as effective as”.

For `CC12CCC(CC1)C(C)(C)O2` [1.8-cineol], the “pediculicidal effectiveness compared with phenothrin or pyrethrum” value [1] is given as “as effective as”.

In the case of `C=C1C(O)CC2CC1C2(C)C` (centres unmarked) [(E)-pinocarveol], the “pediculicidal effectiveness compared with phenothrin or pyrethrum” value [1] is given as “as effective as”.

In the case of `CC1=CCC2CC1C2(C)C` (stereo not drawn) [(−) α-pinene], the “pediculicidal effectiveness compared with phenothrin or pyrethrum” value [1] is given as “as effective as”.

For `c1ccc([C@H]2CN3CCSC3=N2)cc1` [Levamisol], the “effectiveness in treatment of pediculosis” value [2] is listed as 19%.

In the case of `Cl[C@H]1[C@H](Cl)[C@@H](Cl)[C@@H](Cl)[C@H](Cl)[C@H]1Cl` [Lindane, gamma benzene hexachloride], the ovicidal activity [3] is given as “lacks ovicidal activity”, the “average life in the blood stream” value (in vivo) is given as 24 h and the “absorbed by passage into the blood stream” value (topical use) is given as “Approximately 10%”. The “toxicity range, can be lethal” value ([4]; adults) was 28 g and the “dose causing respiratory depression” value ([4]; children below the age of 4, at 1%) was 5 mL.

For `c1ccc2[nH]c(-c3cscn3)nc2c1` [Thiabendazole], the “average life (elimination after percutaneous absorption)” value (in vivo) is given as 70 min.

In the case of `CC1=CC=C(C(C)C)CC1` [α-terpinene], the “pediculicidal effectiveness compared with phenothrin or pyrethrum” value [1] is given as “as effective as”.

In the case of I-phellandrene, the “pediculicidal effectiveness compared with phenothrin or pyrethrum” value [1] is given as “as effective as”.

For α-dodelactone, the repellent activity [5] is listed as “significant repellent activity”.
